Measured values as given in patent publication US12178940B2, “Controlled hydrogel delivery of focal adhesion kinase inhibitor for decreased scar formation” (THE BOARD OF TRUSTEES OF THE LELAND STANFORD JUNIOR …, priority 2018, dated 2024).
Structures can show the parent of a compound that is named as a salt. Where two headings read alike, the source gives them in different places.

Columns and labels:
Other Targets = conditions: Table 1; cited from earlier work
FAK = FAK (Homo sapiens, UniProt Q05397); conditions: class symbols of Table 1, legend not given; cited from earlier work
Sequence of FAK (Q05397 whole entry, species assumed): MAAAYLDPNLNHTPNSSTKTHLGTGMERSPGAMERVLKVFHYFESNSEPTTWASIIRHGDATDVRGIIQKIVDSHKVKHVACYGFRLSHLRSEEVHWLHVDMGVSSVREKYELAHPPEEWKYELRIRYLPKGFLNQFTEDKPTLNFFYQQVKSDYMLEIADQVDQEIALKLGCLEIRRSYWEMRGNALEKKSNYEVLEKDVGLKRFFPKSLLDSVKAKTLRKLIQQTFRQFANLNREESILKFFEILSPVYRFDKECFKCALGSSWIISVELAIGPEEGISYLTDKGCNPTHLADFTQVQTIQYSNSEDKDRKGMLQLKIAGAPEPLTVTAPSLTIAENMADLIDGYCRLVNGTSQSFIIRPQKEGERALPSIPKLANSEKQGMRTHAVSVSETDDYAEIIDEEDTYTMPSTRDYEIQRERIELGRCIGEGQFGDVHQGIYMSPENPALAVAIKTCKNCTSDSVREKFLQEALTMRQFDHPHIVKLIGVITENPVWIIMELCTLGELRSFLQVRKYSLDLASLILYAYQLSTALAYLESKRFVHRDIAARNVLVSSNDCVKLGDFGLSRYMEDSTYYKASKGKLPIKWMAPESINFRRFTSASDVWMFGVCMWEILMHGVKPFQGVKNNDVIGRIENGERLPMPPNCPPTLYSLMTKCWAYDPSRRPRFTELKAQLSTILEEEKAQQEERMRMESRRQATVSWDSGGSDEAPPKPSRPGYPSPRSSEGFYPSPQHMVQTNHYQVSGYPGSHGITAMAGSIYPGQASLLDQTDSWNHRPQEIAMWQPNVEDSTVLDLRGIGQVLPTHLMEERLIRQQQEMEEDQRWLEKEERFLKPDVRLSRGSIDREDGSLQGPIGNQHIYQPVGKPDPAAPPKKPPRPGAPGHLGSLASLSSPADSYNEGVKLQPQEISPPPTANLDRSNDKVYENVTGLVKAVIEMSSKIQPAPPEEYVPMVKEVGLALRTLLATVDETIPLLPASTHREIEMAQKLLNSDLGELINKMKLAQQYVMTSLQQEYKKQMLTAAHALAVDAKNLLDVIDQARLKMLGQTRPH

advanced solid tumors = conditions: cited from earlier work
murine dorsal incisions = format: in vivo; conditions: daily local subcutaneous injection
Experimental: Hypertrophic scar model and local subcutaneous injection of FAKI: Incisional wounding and development of hypertrophic scars on the dorsum of mice were performed by previously described methods (Aarabi et al., 2007; Wong et al., 2011a). Animals were randomly assigned to receive 15, 75, or 150 μM concentrations of FAKI dissolved in 10% DMSO via daily local subcutaneous injection adjacent to the wound site. […] Specimens were harvested at Day 14 post-injury for histology and scar areas were quantified (FIG. 6).

incisional HTS model = conditions: intradermal injection; cited from earlier work

CN(c1ncccc1CNc1nc(Nc2ccc3c(c2)CC(=O)N3)ncc1C(F)(F)F)S(C)(=O)=O [PF-562271 HCl]
Other Targets (Other Targets): CDK2/ CyclinE,CDK3/ CyclinE,CKD1/ CyclinB

CC(=O)NCC(=O)N1[C@@H]2CC[C@H]1c1ccc(Nc3ncc(C(F)(F)F)c(NC4CCC4)n3)cc12 [PF-03814735]
Other Targets (Other Targets): Aurora A, Aurora B, FLT1

CC(C)=CCC/C(C)=C/CC/C(C)=C/CC/C(C)=C/CC/C(C)=C/CC/C(C)=C/CC/C(C)=C/CC/C(C)=C/CC/C(C)=C/CO [Solanesol]
FAK (FAK): ✓

CNC(=O)c1ccccc1Nc1nc(Nc2ccc(N3CCOCC3)cc2OC)ncc1Cl [TAE226]
Other Targets (Other Targets): Insulin Receptor, IGF-1R, c-Met

CN(c1ncccc1CNc1nc(Nc2ccc3c(c2)CC(=O)N3)ncc1C(F)(F)F)S(C)(=O)=O [PF-562271]
efficacy in treatment of advanced solid tumors (advanced solid tumors; clinical trials): proven effective | pharmacokinetics in clinical trials (advanced solid tumors; clinical trials): desired pharmacokinetics | reason for discontinuation as an anti-cancer agent (advanced solid tumors; dosed orally): potential drug-drug interactions | major systemic toxicities (advanced solid tumors; oral administration, clinical trials): nausea/vomiting and gastrointestinal-related adverse effects | scar lesions (Masson's Trichrome) (murine dorsal incisions; 15 μM FAKI in 10% DMSO): reduced scar lesions | scar lesions (Masson's Trichrome) (murine dorsal incisions; 75 μM FAKI in 10% DMSO): reduced scar lesions

CS(=O)(=O)c1cccc(CNc2nc(Nc3ccc4c(c3)CCC(=O)N4)ncc2C(F)(F)F)c1 [PF-573228]
inflammatory chemokine pathways (incisional HTS model): suppressed inflammatory chemokine pathways | scarring in vivo (incisional HTS model): attenuated scarring

CNC(=O)c1ccc(Nc2ncc(C(F)(F)F)c(NCc3nccnc3N(C)S(C)(=O)=O)n2)cc1 [Defactinib]
FAK (FAK): ✓ | efficacy in treatment of advanced solid tumors (advanced solid tumors; clinical trials): proven effective
